# Assays:
# Nos2 [1] = molecular target: T1, Nos2 (Mus musculus, UniProt P29477); assay: NO / total NOx production in VSMCs transduced with siAdamts1 and treated with Nos2 inhibitors; type: cell-based; conditions: FIG. 16: 1400W (2 μm), AG, GW273629 (20 μm), 1-NIL (3 mM), Clotrimazole (20 μM)
# T1 construct: endogenous in cells; host or cells: primary mouse VSMCs transduced with siCtl or siAdamts1 lentivirus
# Method: FIG. 17. Representative images (n=4) of NO production (red) and GFP fluorescence (green) in unfixed VSMCs transduced with siCtl or siAdamts1 and treated with the Nos2 inhibitors as indicated. Bar, 50 μm.
# Mouse vascular smooth muscle cells (VSMCs) were isolated and grown as described (Esteban et al., 2011). All experiments were performed during passages 3-7. VSMCs were infected at a multiplicity of infection (MOI)=3 over 5 h. The medium was then replaced with fresh DMEM supplemented with 10% FBS, and cells were cultured for 3 more days, serum-starved for 48 h and then stimulated with Ang-II for 6 h for protein assays or 4 h for mRNA expression analysis.
# NOS2 [2] = molecular target: NOS2 (Homo sapiens, UniProt P35228); conditions: as reported previously; cited from earlier work
# NOS2, sequence (P35228 whole entry): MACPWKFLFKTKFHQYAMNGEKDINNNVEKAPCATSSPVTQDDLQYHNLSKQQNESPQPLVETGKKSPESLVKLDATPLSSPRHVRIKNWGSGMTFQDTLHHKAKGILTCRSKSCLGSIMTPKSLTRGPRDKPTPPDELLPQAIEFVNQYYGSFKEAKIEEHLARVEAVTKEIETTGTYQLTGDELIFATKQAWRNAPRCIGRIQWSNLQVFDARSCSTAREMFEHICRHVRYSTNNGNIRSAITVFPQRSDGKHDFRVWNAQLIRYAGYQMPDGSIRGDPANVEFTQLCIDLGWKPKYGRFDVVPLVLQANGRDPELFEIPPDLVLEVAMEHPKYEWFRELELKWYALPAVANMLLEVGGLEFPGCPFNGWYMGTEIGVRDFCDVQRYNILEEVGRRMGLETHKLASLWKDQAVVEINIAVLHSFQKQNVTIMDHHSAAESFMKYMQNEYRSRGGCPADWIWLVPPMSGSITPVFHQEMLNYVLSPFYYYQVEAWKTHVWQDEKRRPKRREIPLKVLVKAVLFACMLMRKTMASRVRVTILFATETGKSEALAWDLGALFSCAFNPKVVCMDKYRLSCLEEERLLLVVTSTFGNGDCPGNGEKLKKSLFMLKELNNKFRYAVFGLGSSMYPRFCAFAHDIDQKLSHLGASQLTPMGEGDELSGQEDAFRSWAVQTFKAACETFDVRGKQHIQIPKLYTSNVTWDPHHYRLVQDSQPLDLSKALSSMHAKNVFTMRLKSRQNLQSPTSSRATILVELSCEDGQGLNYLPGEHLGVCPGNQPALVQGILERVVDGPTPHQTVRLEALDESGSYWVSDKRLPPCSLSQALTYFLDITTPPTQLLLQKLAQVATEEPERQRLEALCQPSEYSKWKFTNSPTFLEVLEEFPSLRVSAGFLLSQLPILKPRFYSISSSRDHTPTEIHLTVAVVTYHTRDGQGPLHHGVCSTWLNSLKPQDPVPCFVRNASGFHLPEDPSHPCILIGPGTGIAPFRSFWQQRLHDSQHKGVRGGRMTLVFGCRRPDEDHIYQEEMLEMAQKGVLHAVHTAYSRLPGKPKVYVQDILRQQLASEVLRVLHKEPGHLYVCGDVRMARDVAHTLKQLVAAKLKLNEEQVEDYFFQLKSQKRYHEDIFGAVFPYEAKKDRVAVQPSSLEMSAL
# Fbn1C1039G/+ mice = assay: Treatment of Fbn1C1039G/+ mice (Marfan syndrome model); type: in vivo, mouse
# Description: (§1) Animal procedures were approved by the CNIC Ethics Committee and conformed to European Union guidelines for the care and experimental use of animals. Adamts1+/− mice were obtained from the European Mouse Mutant Archive [(EM:02291) B6; 129P2-Adamts1<tm1Dgen>/H] and carried a LacZ-Neo cassette to replace a genomic sequence (c7784) between exon1 and 2 in the Adamts1 target allele. Fbn1C1039G/+ mice (Judge et al., 2004), harboring a mutation in the Fbn1 gene, and Nos2−/− mice (Laubach et al., 1995) were obtained from Jackson Laboratories (JAX mice stock #012885 and 007072, respectively). These 3 strains had been previously backcrossed to C57BL/6 for more than nine generations. All mice were genotyped by PCR of tail samples using the following primers: Adamts1 mice (5′-[…]-3′(SEQ ID NO: 5), 5′-[…] (SEQ ID NO: 6)/[…]-3′ (SEQ ID NO: 7)); Nos2−/− mice (5′[…] 3′ (SEQ ID NO: 8); 5′ […] 3′(SEQ ID NO: 9), 5′ […] 3′) (SEQ ID NO: 10); Fbn1C1039G/+ mice (5′CTCATCATTTTTGGCCAGTTG 3′ (SEQ ID NO: 11), 5′GCACTTGATGCACATTCACA 3′ (SEQ ID NO: 12)). Wild-type littermates were used as controls unless otherwise specified. Mice were treated with Ang-II (Sigma-Aldrich) at 1 μg/kg/min or losartan (Sigma Aldrich) at 10 mg/kg/day using subcutaneous osmotic minipumps (Alzet Corp). The monoclonal pan-antibody against TGFβ1, 2, 3 clone 1D11 (BioXcell) was injected intraperitoneally 3 times per week at 10 mg/kg.
# (§2) Arterial blood pressure (BP) was measured in mouse tails using the automated BP-2000 Blood Pressure Analysis System (Visitech Systems, Apex, NC, USA). In brief, mice were trained for BP measurements every day for one week. After training, BP was measured one day before treatment or before lentiviral infection to determine the baseline BP values in each mouse cohort. Measurements were repeated several times during experiments. BP measurements were recorded in mice located in a tail-cuff restrainer, over a warmed surface (37° C.). Fifteen consecutive systolic and diastolic BP measurements were made, and the last ten readings per mouse were recorded and averaged.
# (§3) For in vivo ultrasound images, the aortic diameter was monitored in isofluorane-anesthetized mice (2% isofluorane) by high-frequency ultrasound with a VEVO 2100 echography device (VisualSonics, Toronto, Canada). Maximal internal diameters of aortic images were measured using VEVO 2100 software, version 1.5.0. […]
# Images of Masson's trichrome and EVG staining were analyzed for collagen content with ImageJ (http://rsbweb.nih.gov/ij/index.html) and with MetaMorph (Molecular Devices; Sunnyvale, California) for quantification of elastin breaks. For each animal, elastin breaks were counted in 3 sections and the mean number of breaks was calculated. […]
# Adamts1+/− mice = assay: Treatment of Adamts1+/− mice (aortic diameter, BP, histology); type: in vivo, mouse
# Description: as §1, §2
# (§4) For in vivo ultrasound images, the aortic diameter was monitored in isofluorane-anesthetized mice (2% isofluorane) by high-frequency ultrasound with a VEVO 2100 echography device (VisualSonics, Toronto, Canada). Maximal internal diameters of aortic images were measured using VEVO 2100 software, version 1.5.0. All recordings were made by a cardiologist and a technician who were blinded to animal genotype and treatment. Measurements were taken before lentivirus administration or the corresponding treatments to determine the baseline diameters, and measurements were repeated several times during the experiment.
# (§5) Images of Masson's trichrome and EVG staining were analyzed for collagen content with ImageJ (http://rsbweb.nih.gov/ij/index.html) and with MetaMorph (Molecular Devices; Sunnyvale, California) for quantification of elastin breaks. For each animal, elastin breaks were counted in 3 sections and the mean number of breaks was calculated. Images were processed for presentation with Photoshop and Illustrator (Adobe).
# [3] = tested on: siAdamts1-transduced C57BL/6 mice; assay: Aortopathy induced by siAdamts1 lentivirus (aortic Adamts1 knockdown) in C57BL/6 mice; type: in vivo, mouse; conditions: for Elastic fiber fragmentation (elastolysis, elastin breaks) / Fibrosis (collagen content): aortic sections, end of experiment; for Aortic dilation (AsAo and AbAo diameter) induced by siAdamts1: anti-TGFβ 10 mg/kg i.p. 3 times per week, L-NAME 0.5 mg/ml in drinking water; for Systolic and diastolic BP (hypotension) in siAdamts1-transduced mice: same treatments as E4
# Description: as §1, §2, §4
# For in vivo transduction experiments, animals were anesthetized (ketamine/xilacine) and a small incision was made to expose the right jugular vein (Esteban et al., 2011). Virus solution ([…] in PBS) was inoculated directly into the right jugular vein 3 weeks before Ang-II mini-pump implantation or one day before monitoring of aortic dilation. Transduction efficiency was analyzed in aortic samples by immunohistochemistry for GFP and Adamts1.
# as §5, with “(Adobe). […]” for “(Adobe).”
# Aortic extracts were prepared from whole aortas as described for immunoblot assays, but in the absence of DTT. Extracts (15 μg) were fractionated under nonreducing conditions on SDS-polyacrylamide gels containing 1% gelatin. […]
# mouse model of mild MFS = conditions: cited from earlier work
# model of severe MFS = conditions: compared with mild MFS model; cited from earlier work
# aortic root enlargement = conditions: randomized clinical trials, cited from earlier work
# wt mice = assay: Ang-II treatment of wt mice for 28 days (ultrasonography of aorta); type: in vivo, mouse
# Description: Animal procedures were approved by the CNIC Ethics Committee and conformed to European Union guidelines for the care and experimental use of animals. Adamts1+/− mice were obtained from the European Mouse Mutant Archive [(EM:02291) B6; 129P2-Adamts1<tm1Dgen>/H] and carried a LacZ-Neo cassette to replace a genomic sequence (c7784) between exon1 and 2 in the Adamts1 target allele. Fbn1C1039G/+ mice (Judge et al., 2004), harboring a mutation in the Fbn1 gene, and Nos2−/− mice (Laubach et al., 1995) were obtained from Jackson Laboratories (JAX mice stock #012885 and 007072, respectively). These 3 strains had been previously backcrossed to C57BL/6 for more than nine generations. […]
# as §3
# To investigate the contribution of Adamts1 to Ang-II-elicited aortic dilation and aneurysm, we used Adamts1 deficient mice from the European Mouse Mutant Archive (EM: 02291). […] No aneurysms or lethal dissections were detected in Adamts1+/− mice in the absence of Ang-II at this age.
# [4] = L-NAME 21 days, end of experiment
molecule,measurement,setting,value
CC(=N)NCc1cccc(CN)c1 [1400W],"NO production (total NOx in conditioned media, NO staining)",Nos2 [1],reduced the expression of NO
Clc1ccccc1C(c1ccccc1)(c1ccccc1)n1ccnc1 [Clotrimazole],Dimerization of NOS2,NOS2 [2],inhibits the dimerization of NOS2
same,"NO production (total NOx in conditioned media, NO staining)",Nos2 [1],reduced the expression of NO
CC(=N)NCCS(=O)(=O)CC(N)C(=O)O (centres unmarked) [GW273629],"NO production (total NOx in conditioned media, NO staining)",Nos2 [1],reduced the expression of NO
"COC(=O)[C@@H](N)CCCNC(=N)N[N+](=O)[O-].Cl [L-NAME, Nω-Nitro-L-arginine methyl ester hydrochloride]",AsAo and AbAo diameters,"Fbn1C1039G/+ mice; 12-week-old mice, L-NAME in drinking water for 21 days",rapidly decreased the AsAo and AbAo diameters to normal levels
same,Collagen content,"Fbn1C1039G/+ mice; L-NAME 21 days, AsAo and AbAo",unaffected
same,Elastic fiber fragmentation,Fbn1C1039G/+ mice; [4],diminished elastic fiber fragmentation
same,Systolic and diastolic BP,Fbn1C1039G/+ mice; [4],augmented the systolic and diastolic BP
same,"NO production (total NOx in conditioned media, NO staining)",Nos2 [1],reduced the expression of NO
same,Time to complete reversal of aortic dilation,Adamts1+/− mice; Adamts1+/− and MFS mice,1 week
same,Elastic fiber fragmentation,Adamts1+/− mice; [4],decreased elastic fiber fragmentation
same,Fibrosis (collagen content),Adamts1+/− mice; [4],diminished fibrosis
same,AsAo and AbAo diameter,Adamts1+/− mice; L-NAME in drinking water for 21 days,rapidly decreased AsAo and AbAo diameter to normal levels
same,Systolic and diastolic BP,"Adamts1+/− mice; L-NAME in drinking water for 21 days, end of experiment",reverted the systolic and diastolic hypotension
same,Mmp9 activation (zymography),[3]; aortic extracts from siAdamts1-transduced mice,prevented Mmp9 activation
same,"Elastic fiber fragmentation (elastolysis, elastin breaks)",[3],blocked elastolysis
same,Fibrosis (collagen content),[3],decreased the fibrosis
same,Aortic dilation (AsAo and AbAo diameter) induced by siAdamts1,[3]; losartan 10 mg/kg/day minipump,prevented siAdamts1-induced dilation of the AsAo and the AbAo
same,Systolic and diastolic BP (hypotension) in siAdamts1-transduced mice,[3],hypertensive effect
CC(=N)NCCCC[C@H](N)C(=O)O [L-NIL],"NO production (total NOx in conditioned media, NO staining)",Nos2 [1],reduced the expression of NO
CCCCc1nc(Cl)c(CO)n1Cc1ccc(-c2ccccc2-c2nn[nH]n2)cc1 [losartan],Aortic dilation,mouse model of mild MFS,these processes are also inhibited
same,Elastic lamellae fragmentation,mouse model of mild MFS,these processes are also inhibited
same,Effectiveness in severe MFS model,model of severe MFS,less effective
same,Reduction of the rate of aortic root enlargement,aortic root enlargement; versus atenolol,no more effective
same,Benefit of dual therapy with atenolol,aortic root enlargement,no additional benefit
same,"Elastic fiber fragmentation (elastolysis, elastin breaks)",[3],did not reduce elastic fiber fragmentation
same,Fibrosis (collagen content),[3],did not reduce elastic fiber fragmentation or fibrosis
same,Aortic dilation (AsAo and AbAo diameter) induced by siAdamts1,[3]; losartan 10 mg/kg/day minipump,neither treatment inhibited aortic dilation
same,Systolic and diastolic BP (hypotension) in siAdamts1-transduced mice,[3],did not prevent hypotension
same,BP in control mice,"[3]; siCtl control mice, losartan 10 mg/kg/day minipump",reduced BP in control mice
Aminoguanidine,"NO production (total NOx in conditioned media, NO staining)",Nos2 [1],reduced the expression of NO
same,Aortic diameter (ascending and abdominal aorta),Adamts1+/− mice; AG 1.5 gr/1 in drinking water,reduces aortic diameter
"Angiotensin-II (DRVYIHPF; Angiotensin-2; UniProt P01019 25-32, looked up) [Ang-II]","Aortic dilation (AR, AsAo, AbAo)","wt mice; 8-week-old wt mice, Ang-II for 28 days, 1 μg/kg/min minipump",promoted generalized aortic dilation
same,AA or lethal aortic dissections,"wt mice; wt mice, Ang-II 28 days",barely induced AA or lethal aortic dissections
same,AA or lethal aortic dissections,"Adamts1+/− mice; Adamts1+/− mice, Ang-II 28 days",readily triggered their formation

# Reference: patent US12163161B2, “In vitro method for identifying thoracic aortic aneurysms (TAA) in a subject” (CENTRO NACIONAL DE INVESTIGACIONES CARDIOVASCULARES CARLOS …, priority 2016, dated 2024)
